Laboratory results: ChEMBL document CHEMBL1145395, “De novo design of selective antibiotic peptides by incorporation of unnatural amino acids” (J Med Chem, 2007)
In brackets after ≈: the same amount, converted by molar mass. Activity calls are given as the source filed them. The rule behind the calls is not given here. Non-standard residues stand in square brackets, D forms with d. Residues, ends and D or L forms follow the SMILES beside them. ξ: configuration not given here. Pro(3ξ,4ξ-(CH2)4) = O=C(O)[C@H]1NCC2CCCCC21; Oic = O=C(O)[C@@H]1C[C@@H]2CCCC[C@@H]2N1; Tic = O=C(O)[C@@H]1Cc2ccccc2CN1; dTic = O=C(O)[C@H]1Cc2ccccc2CN1; Orn = NCCC[C@H](N)C(=O)O; GABA = NCCCC(=O)O; βAla = NCCC(=O)O

Legend:
Bacillus subtilis [1] = experiment: Antibacterial activity against Bacillus subtilis ATCC 43223 at 100 uM; assay type: functional, organism-based
Staphylococcus aureus [2] = experiment: Antibacterial activity against methicillin/gentamicin/tetracycline resistant Staphylococcus aureus ATCC 33592 at 100 uM; assay type: functional, organism-based
Mus musculus [3] = experiment: Acute toxicity in mouse at 125 mg/kg, ip after 6 days; assay type: organism-based; parameters: dose 125 mg/kg, route intraperitoneal; conditions: in vivo, 144 h
Mus musculus [4] = experiment: Acute toxicity in mouse at 5 mg/kg, ip after 6 days; assay type: organism-based; parameters: dose 5 mg/kg, route intraperitoneal; conditions: in vivo, 144 h
[5] = Toxicity to mouse RBC assessed as hemolytic activity at 100 uM; assay type: cell-based, Erythrocyte; conditions: red blood cells, read-out: Activity
Mus musculus [6] = experiment: Acute toxicity in mouse at 25 mg/kg, ip after 6 days; assay type: organism-based; parameters: dose 25 mg/kg, route intraperitoneal; conditions: in vivo, 144 h
Bacillus subtilis [7] = experiment: Antibacterial activity against Bacillus subtilis ATCC 43223; assay type: functional
Mus musculus [8] = experiment: Effect on wound healing in CD1 mouse skin at 100 ug applied topically after 3 days; assay type: functional
Mycobacterium = experiment: Antibacterial activity against Mycobacterium ranae ATCC 110; assay type: functional
Staphylococcus aureus [9] = experiment: Antibacterial activity against methicillin/gentamicin/tetracycline resistant Staphylococcus aureus ATCC 33592; assay type: functional
Mus musculus [10] = experiment: Effect on wound healing in CD1 mouse skin at 100 ug applied topically after 11 days; assay type: functional
Mus musculus [11] = experiment: Effect on wound healing in CD1 mouse skin at 100 ug applied topically after 5 days; assay type: functional
Mus musculus [12] = experiment: Effect on wound healing in CD1 mouse skin at 100 ug applied topically after 9 days; assay type: functional
Mus musculus [13] = experiment: Effect on wound healing in CD1 mouse skin at 100 ug applied topically; assay type: functional
Mus musculus [14] = experiment: Effect on wound healing in CD1 mouse skin at 100 ug applied topically after 7 days; assay type: functional
Salmonella typhimurium = experiment: Antibacterial activity against Salmonella Typhimurium ATCC 13311; assay type: functional, Salmonella enterica subsp. enterica serovar Typhimurium; conditions: Salmonella enterica
[15] = Toxicity to mouse RBC assessed as hemolytic activity at 25 uM; assay type: cell-based, Erythrocyte; conditions: red blood cells, read-out: Activity

CC[C@H](C)[C@H](NC(=O)[C@H](CCC(=O)O)NC(=O)CNC(=O)[C@@H](NC(=O)[C@H](Cc1ccccc1)NC(=O)[C@H](C)NC(=O)[C@H](CCCCN)NC(=O)CNC(=O)[C@H](Cc1ccccc1)NC(=O)[C@H](CCCCN)NC(=O)CNC(=O)[C@H](C)NC(=O)[C@H](CO)NC(=O)[C@H](Cc1cnc[nH]1)NC(=O)[C@H](CC(C)C)NC(=O)[C@H](Cc1ccccc1)NC(=O)[C@H](CCCCN)NC(=O)CNC(=O)[C@H](NC(=O)CN)[C@@H](C)CC)C(C)C)C(=O)N[C@@H](CCSC)C(=O)N[C@@H](CCCCN)C(=O)N[C@@H](CO)C(N)=O
Activity (Bacillus subtilis [1]): inactive
Activity (Staphylococcus aureus [2]): inactive

CC(=O)NCC(=O)N[C@@H](Cc1ccccc1)C(=O)N1Cc2ccccc2C[C@H]1C(=O)N1[C@H](C(=O)NCC(=O)N[C@@H](CCCCN)C(=O)N2Cc3ccccc3C[C@H]2C(=O)N2[C@H](C(=O)NCC(=O)N[C@@H](Cc3ccccc3)C(=O)N3Cc4ccccc4C[C@H]3C(=O)N3[C@H](C(=O)NCC(=O)N[C@@H](CCCCN)C(=O)N4Cc5ccccc5C[C@H]4C(=O)N[C@@H](CCCCN)C(=O)N[C@@H](CCCCN)C(=O)N[C@@H](CCCCN)C(=O)N[C@@H](CCCCN)C(N)=O)C[C@@H]4CCCC[C@@H]43)C[C@@H]3CCCC[C@@H]32)C[C@@H]2CCCC[C@@H]21 (Ac-GF[Tic][Oic]GK[Tic][Oic]GF[Tic][Oic]GK[Tic]KKKK-NH2) [listing 1 of 2 here]
Activity (Mus musculus [3]): Toxic
Activity (Mus musculus [4]): Toxic
hemolysis at 100 µM [5]: 14%
Activity (Mus musculus [6]): Toxic

CC(=O)NCC(=O)N[C@@H](Cc1ccccc1)C(=O)N1Cc2ccccc2C[C@H]1C(=O)N1[C@H](C(=O)NCC(=O)N[C@@H](CCCCN)C(=O)N2Cc3ccccc3C[C@H]2C(=O)N2[C@H](C(=O)NCC(=O)N[C@@H](Cc3ccccc3)C(=O)N3Cc4ccccc4C[C@H]3C(=O)N3[C@H](C(=O)NCC(=O)N[C@@H](CCCCN)C(=O)N4Cc5ccccc5C[C@H]4C(=O)N[C@@H](CCCCN)C(=O)N[C@@H](CCCCN)C(=O)N[C@@H](CCCCN)C(=O)N[C@@H](CCCCN)C(N)=O)C[C@@H]4CCCC[C@@H]43)C[C@@H]3CCCC[C@@H]32)C[C@@H]2CCCC[C@@H]21 (Ac-GF[Tic][Oic]GK[Tic][Oic]GF[Tic][Oic]GK[Tic]KKKK-NH2) [listing 2 of 2 here]
MIC (Bacillus subtilis [7]): 1 µM (≈ 2.44 µg/mL)
Activity (Mus musculus [8]): 36.3%
MIC (Mycobacterium): 10 µM (≈ 24.4 µg/mL)
MIC (Staphylococcus aureus [9]): 3 µM (≈ 7.32 µg/mL)
Activity (Mus musculus [10]): 77.5%
Activity (Mus musculus [11]): 51.5%
Activity (Mus musculus [12]): 69.8%
CT50 (Mus musculus [13]): 6.1 days
Activity (Mus musculus [14]): 63.3%
MIC (Salmonella typhimurium): 10 µM (≈ 24.4 µg/mL)

CC(=O)NCC(=O)N[C@@H](Cc1ccccc1)C(=O)N1Cc2ccccc2C[C@H]1C(=O)N1CC2CCCCC2[C@H]1C(=O)NCC(=O)N[C@@H](CCCN)C(=O)N1Cc2ccccc2C[C@H]1C(=O)N1CC2CCCCC2[C@H]1C(=O)NCC(=O)N[C@@H](Cc1ccccc1)C(=O)N1Cc2ccccc2C[C@H]1C(=O)N1CC2CCCCC2[C@H]1C(=O)NCC(=O)N[C@@H](CCCN)C(=O)N1Cc2ccccc2C[C@H]1C(=O)N[C@@H](CCCN)C(=O)N[C@@H](CCCN)C(=O)N[C@@H](CCCN)C(=O)N[C@@H](CCCN)C(N)=O (stereo not given in full) (Ac-GF[Tic][Pro(3ξ,4ξ-(CH2)4)]G[Orn][Tic][Pro(3ξ,4ξ-(CH2)4)]GF[Tic][Pro(3ξ,4ξ-(CH2)4)]G[Orn][Tic][Orn][Orn][Orn][Orn]-NH2)
MIC (Bacillus subtilis [7]): 0.3 µM (≈ 0.707 µg/mL)
Activity (Mus musculus [8]): 38.8%
MIC (Mycobacterium): 10 µM (≈ 23.6 µg/mL)
MIC (Staphylococcus aureus [9]): 3 µM (≈ 7.07 µg/mL)
Activity (Mus musculus [10]): 81.1%
Activity (Mus musculus [11]): 51.2%
Activity (Mus musculus [12]): 72.8%
CT50 (Mus musculus [13]): 4.7 days
Activity (Mus musculus [14]): 67.2%
MIC (Salmonella typhimurium): 3 µM (≈ 7.07 µg/mL)

CC(=O)NCCCC(=O)N[C@@H](Cc1ccccc1)C(=O)N1Cc2ccccc2C[C@H]1C(=O)N1[C@H](C(=O)NCCCC(=O)N[C@@H](CCCCN)C(=O)N2Cc3ccccc3C[C@H]2C(=O)N2[C@H](C(=O)NCCCC(=O)N[C@@H](Cc3ccccc3)C(=O)N3Cc4ccccc4C[C@H]3C(=O)N3[C@H](C(=O)NCCCC(=O)N[C@@H](CCCCN)C(=O)N4Cc5ccccc5C[C@H]4C(=O)N[C@@H](CCCCN)C(=O)N[C@@H](CCCCN)C(=O)N[C@@H](CCCCN)C(=O)N[C@@H](CCCCN)C(N)=O)C[C@@H]4CCCC[C@@H]43)C[C@@H]3CCCC[C@@H]32)C[C@@H]2CCCC[C@@H]21 (Ac-[GABA]F[Tic][Oic][GABA]K[Tic][Oic][GABA]F[Tic][Oic][GABA]K[Tic]KKKK-NH2)
MIC (Bacillus subtilis [7]): 1 µM (≈ 2.55 µg/mL)
Activity (Mus musculus [8]): 39.7%
MIC (Mycobacterium): 10 µM (≈ 25.5 µg/mL)
MIC (Staphylococcus aureus [9]): 10 µM (≈ 25.5 µg/mL)
Activity (Mus musculus [10]): 79%
Activity (Mus musculus [11]): 54.1%
Activity (Mus musculus [12]): 72.7%
CT50 (Mus musculus [13]): 5.7 days
Activity (Mus musculus [14]): 64.9%
MIC (Salmonella typhimurium): 100 µM (≈ 255 µg/mL)

CC(=O)NCCC(=O)N[C@@H](Cc1ccccc1)C(=O)N1Cc2ccccc2C[C@H]1C(=O)N1CC2CCCCC2[C@H]1C(=O)NCCC(=O)N[C@@H](CCCCN)C(=O)N1Cc2ccccc2C[C@H]1C(=O)N1CC2CCCCC2[C@H]1C(=O)NCCC(=O)N[C@@H](Cc1ccccc1)C(=O)N1Cc2ccccc2C[C@@H]1C(=O)N1CC2CCCCC2[C@H]1C(=O)NCCC(=O)N[C@@H](CCCCN)C(=O)N1Cc2ccccc2C[C@H]1C(=O)N[C@@H](CCCCN)C(=O)N[C@@H](CCCCN)C(=O)N[C@@H](CCCCN)C(=O)N[C@@H](CCCCN)C(N)=O (stereo not given in full) (Ac-[βAla]F[Tic][Pro(3ξ,4ξ-(CH2)4)][βAla]K[Tic][Pro(3ξ,4ξ-(CH2)4)][βAla]F[dTic][Pro(3ξ,4ξ-(CH2)4)][βAla]K[Tic]KKKK-NH2)
Activity (Mus musculus [3]): Toxic
MIC (Bacillus subtilis [7]): 1 µM (≈ 2.5 µg/mL)
Activity (Mus musculus [4]): Toxic
MIC (Mycobacterium): 1 µM (≈ 2.5 µg/mL)
MIC (Staphylococcus aureus [9]): 10 µM (≈ 25 µg/mL)
hemolysis at 100 µM [5]: 24.4%
hemolysis at 25 µM [15]: 7.4%
Activity (Mus musculus [6]): Toxic
MIC (Salmonella typhimurium): 10 µM (≈ 25 µg/mL)
